Experiments:
CCRF-CEM = type: cell-based; conditions: Homo sapiens, one dose 10^-5 M, 48 h
HL-60(TB) = type: cell-based; conditions: Homo sapiens, one dose 10^-5 M, 48 h
K-562 = type: cell-based; conditions: Homo sapiens, K562, one dose 10^-5 M, 48 h
MOLT-4 = type: cell-based; conditions: Homo sapiens, one dose 10^-5 M, 48 h, read-out: % growth
RPMI-8226 = type: cell-based; conditions: Homo sapiens, one dose 10^-5 M, 48 h
SR = type: cell-based; conditions: Homo sapiens, one dose 10^-5 M, 48 h
A549/ATCC = type: cell-based; conditions: Homo sapiens, one dose 10^-5 M, 48 h
EKVX = type: cell-based; conditions: Homo sapiens, one dose 10^-5 M, 48 h
HOP-62 = type: cell-based; conditions: Homo sapiens, one dose 10^-5 M, 48 h
HOP-92 = type: cell-based; conditions: one dose 10^-5 M, 48 h
NCI-H226 = type: cell-based; conditions: one dose 10^-5 M, 48 h
NCI-H23 = type: cell-based; conditions: Homo sapiens, one dose 10^-5 M, 48 h, read-out: % growth
NCI-H460 = type: cell-based; conditions: Homo sapiens, one dose 10^-5 M, 48 h, read-out: % growth
NCI-H522 = type: cell-based; conditions: Homo sapiens, one dose 10^-5 M, 48 h
HCC-2998 = type: cell-based; conditions: Homo sapiens, one dose 10^-5 M, 48 h
HCT-116 = type: cell-based; conditions: Homo sapiens, one dose 10^-5 M, 48 h, read-out: % growth
HCT-15 = type: cell-based; conditions: Homo sapiens, one dose 10^-5 M, 48 h, read-out: % growth
HT29 = type: cell-based; conditions: Homo sapiens, HT-29, one dose 10^-5 M, 48 h
KM12 = type: cell-based; conditions: Homo sapiens, one dose 10^-5 M, 48 h
SW-620 = type: cell-based; conditions: Homo sapiens, one dose 10^-5 M, 48 h
SF-268 = type: cell-based; conditions: Homo sapiens, one dose 10^-5 M, 48 h, read-out: % growth
SF-295 = type: cell-based; conditions: Homo sapiens, one dose 10^-5 M, 48 h
SF-539 = type: cell-based; conditions: Homo sapiens, one dose 10^-5 M, 48 h
SNB-19 = type: cell-based; conditions: Homo sapiens, one dose 10^-5 M, 48 h, read-out: % growth
SNB-75 = type: cell-based; conditions: one dose 10^-5 M, 48 h
U251 = type: cell-based; conditions: Homo sapiens, U-251, one dose 10^-5 M, 48 h
LOX IMVI = type: cell-based; conditions: Homo sapiens, one dose 10^-5 M, 48 h, read-out: % growth
MALME-3M = type: cell-based; conditions: Homo sapiens, one dose 10^-5 M, 48 h
M14 = type: cell-based; conditions: Homo sapiens, one dose 10^-5 M, 48 h
MDA-MB-435 = type: cell-based; conditions: Homo sapiens, one dose 10^-5 M, 48 h, read-out: % growth
SK-MEL-2 = type: cell-based; conditions: Homo sapiens, one dose 10^-5 M, 48 h
SK-MEL-28 = type: cell-based; conditions: Homo sapiens, one dose 10^-5 M, 48 h
SK-MEL-5 = type: cell-based; conditions: Homo sapiens, one dose 10^-5 M, 48 h, read-out: % growth
UACC-257 = type: cell-based; conditions: Homo sapiens, one dose 10^-5 M, 48 h
UACC-62 = type: cell-based; conditions: Homo sapiens, one dose 10^-5 M, 48 h
IGROV1 = type: cell-based; conditions: Homo sapiens, IGROV-1, one dose 10^-5 M, 48 h, read-out: % growth
OVCAR-3 = type: cell-based; conditions: Homo sapiens, one dose 10^-5 M, 48 h
OVCAR-4 = type: cell-based; conditions: Homo sapiens, one dose 10^-5 M, 48 h
OVCAR-5 = type: cell-based; conditions: Homo sapiens, one dose 10^-5 M, 48 h
OVCAR-8 = type: cell-based; conditions: Homo sapiens, one dose 10^-5 M, 48 h
SK-OV-3 = type: cell-based; conditions: Homo sapiens, one dose 10^-5 M, 48 h
786-0 = type: cell-based; conditions: Homo sapiens, one dose 10^-5 M, 48 h
A498 = type: cell-based; conditions: Homo sapiens, one dose 10^-5 M, 48 h
ACHN = type: cell-based; conditions: Homo sapiens, one dose 10^-5 M, 48 h
CAKI-1 = type: cell-based; conditions: Homo sapiens, CAKI-1, 48 h, one dose 10^-5 M, 48 h
RXF 393 = type: cell-based; conditions: Homo sapiens, RXF 393, 48 h, one dose 10^-5 M, 48 h, read-out: % growth
SN12C = type: cell-based, human; conditions: Homo sapiens, one dose 10^-5 M, 48 h
TK-10 = type: cell-based; conditions: Homo sapiens, one dose 10^-5 M, 48 h
UO-31 = type: cell-based; conditions: Homo sapiens, UO-31, 48 h, one dose 10^-5 M, 48 h
PC-3 = type: cell-based; conditions: Homo sapiens, one dose 10^-5 M, 48 h
DU-145 = type: cell-based; conditions: Homo sapiens, one dose 10^-5 M, 48 h
MCF7 = type: cell-based; conditions: Homo sapiens, one dose 10^-5 M, 48 h, read-out: % growth
MDA-MB-231/ATCC = type: cell-based; conditions: Homo sapiens, one dose 10^-5 M, 48 h
HS 578T = type: cell-based; conditions: one dose 10^-5 M, 48 h, HS 578T
T-47D = type: cell-based; conditions: Homo sapiens, T47D, one dose 10^-5 M, 48 h, read-out: % growth
MDA-MB-468 = type: cell-based; conditions: Homo sapiens, one dose 10^-5 M, 48 h
[1] = system: full NCI 60 cell lines panel
Procedure: 60 different human tumour cell lines-representing leukaemia, melanoma, and malignancies of the lung, colon, brain, ovary, breast, prostate, and kidney are used in the operation of this screen.
Compounds were dissolved in DMSO: glycerol (91) and were kept in a freezer at −70° C. The synthesised compounds were introduced to the culture at a single concentration of 1 0 ^−5 M and left to incubate for 48 h. A protein-binding dye called sulforhodamine B was used to measure end points (SRB).
A mean graph showing the % growth of treated cells is used to represent the one-dose data. The value provided for the One-dose assay represents growth in comparison to the no-drug control and to the number of cells at time zero. This enables the identification of lethality (values between 0 and 100) as well as growth inhibition (values less than 0). A value of 100, for instance, indicates no growth inhibition. A value of 40 would indicate 60% growth inhibition. A value of 0 indicates no net growth over the course of the experiment. A value of −40 would indicate 40% lethality.
Furthermore, the average sensitivity of all cell lines to the compound is termed as the full panel mean graph midpoints (MG-MID). The complete panel mean graph midpoints refers to the average sensitivity of all cell lines to the chemical (MG-MID). A measure of a compound’s selectivity for a given cell line is the ratio created by dividing the full panel mean graph midpoints (MG-MID) concentration by the individual subpanel MG-MID concentrations (obtained as the average sensitivity of all the cell lines in a given subpanel to the test compound).

N=C(NN=Cc1ccccc1)c1c(N)nc(S)nc1-c1ccc(Cl)cc1 [Compound 4g, 4-amino-6–(4-chlorophenyl)-2-mercapto-N'-[phenylmethylene]pyrimidine-5-carboximido hydrazide]
% cell growth at 10 µM (CCRF-CEM): 65% | % growth at 10 µM (HL-60(TB)): 97% | % growth at 10 µM (K-562): 52.4% | activity at 10 µM (MOLT-4): 58.5% | % growth at 10 µM (RPMI-8226): 51.4% | percent cell growth at 10 µM (SR): 46.4% | % growth at 10 µM (A549/ATCC): 31.6% | % cell growth at 10 µM (EKVX): 52.9% | % growth at 10 µM (HOP-62): 30.2% | % growth at 10 µM (HOP-92; Homo sapiens): -0.44% | % growth (HOP-92): -0.44% | % growth at 10 µM (NCI-H226; Homo sapiens): -0.68% | % growth (NCI-H226): -0.68% | activity at 10 µM (NCI-H23): 64.3% | activity at 10 µM (NCI-H460): 16.5% | % growth at 10 µM (NCI-H522): 56.4% | % growth at 10 µM (HCC-2998): 93.1% | activity at 10 µM (HCT-116): 30.6% | activity at 10 µM (HCT-15): 53.1% | % growth at 10 µM (HT29): 78.5% | % growth at 10 µM (KM12): 62.3% | % growth at 10 µM (SW-620): 76.3% | activity at 10 µM (SF-268): 49.3% | % cell growth at 10 µM (SF-295): 35.6% | % growth at 10 µM (SF-539): 11.4% | activity at 10 µM (SNB-19): 59.8% | % growth at 10 µM (SNB-75; Homo sapiens): -34.3% | % growth (SNB-75): -34.30% | % growth at 10 µM (U251): 13.2% | activity at 10 µM (LOX IMVI): 22.6% | % growth at 10 µM (MALME-3M): 52.1% | % growth at 10 µM (M14): 70.6% | activity at 10 µM (MDA-MB-435): 77.3% | % growth at 10 µM (SK-MEL-2): 92.7% | % cell growth at 10 µM (SK-MEL-28): 88.5% | activity at 10 µM (SK-MEL-5): 84.9% | percent cell growth at 10 µM (UACC-257): 92.8% | % growth at 10 µM (UACC-62): 78.1% | activity at 10 µM (IGROV1): 62.6% | % growth at 10 µM (OVCAR-3): 77.7% | % growth at 10 µM (OVCAR-4): 37.5% | percent cell growth at 10 µM (OVCAR-5): 80.1% | % growth of cells at 10 µM (OVCAR-8): 20.4% | % growth at 10 µM (SK-OV-3): 81% | % growth at 10 µM (786-0): 41.7% | % growth at 10 µM (A498): 105% | % growth at 10 µM (ACHN): 23.3% | % growth at 10 µM (CAKI-1): 31.2% | activity at 10 µM (RXF 393): 8.96% | % growth at 10 µM (SN12C): 73.9% | % cell growth at 10 µM (TK-10): 93.9% | % cell growth at 10 µM (UO-31): 29.4% | percent cell growth at 10 µM (PC-3): 52.6% | % growth at 10 µM (DU-145): 48.7% | activity at 10 µM (MCF7): 42.2% | % growth at 10 µM (MDA-MB-231/ATCC): 1.22% | activity at 10 µM (HS 578T; Homo sapiens, read-out: % growth): -6.98% | % growth (HS 578T): -6.98% | activity at 10 µM (T-47D): 49.4% | percent cell growth at 10 µM (MDA-MB-468): 49.7% | activity at 10 µM ([1]; Homo sapiens, 60 cell, 48 h, read-out: Mean % growth): 50.8% | % growth values, cell lines with lethal effect ([1]; one dose, range over those cell lines): −0.44%to-34.30
